Test results reported in article PMC7179167 (Molecules, 2020).
Converted amounts (≈) assume the structure as drawn. Where two headings read alike, the source gives them in different places.

Assays:
Bax [1] = experiment: Bax ELISA in HCT-116 cells; assay type: cell-based, human; conditions: HCT-116 cells treated at IC50 concentration; control 118.54 ± 0.83; mean ± SD
From the text: (§1) The promising antiproliferative results reported for compounds 11a, 11b, 12a, 12b and 13c against cell lines under study have prompted us to investigate the mechanism of cell death induced by these compounds. Apoptosis induction was examined in both MCF-7 and HCT-116 cancer cells by assaying the level of its key protein markers, namely: proapoptotic (p53, Bcl 2-associated X, Bax and caspases3) and antiapoptotic (B-cell lymphoma-2, Bcl-2). MCF-7 and HCT-116 cells undergoing apoptosis was detected by use of the ELISA technique. Protein marker levels were quantified according to Bradford assay.
(§2) Briefly, cells ([…] and HCT) were seeded at a concentration of 1.2–1.8 × 10^3 cells/well in 6-well plates. After 48-h treatment, the collected cells were lysed and centrifuged at 10,000 rpm for 20 min at 4 °C. The protein concentration was measured in the supernatant by Bradford protein assay. Volume containing […] of total protein was incubated with […] of caspase substrate in […] of the reaction buffer at 37 °C for 1 h in the dark. Caspase-3 activity was determined by a microplate reader at 405 nm using a caspase-3 colorimetric assay kit (Abcam) according to the manufacturer’s instructions. In vitro protein level quantitative measurement of apoptotic marker p53, Bcl-2-associated X (Bax) and antiapoptotic marker B-cell lymphoma-2 (Bcl-2) in cell lysate were assessed by Enzyme-Linked Immunosorbent Assay Simple Step ELISA® (ab199080, ab119506 and ab171571; Abcam) according to the manufacturer’s instructions.

Bax [2] = experiment: Bax ELISA in MCF-7 cells; assay type: cell-based, human; conditions: MCF-7 cells treated at IC50 concentration; control 39.56 ± 4.56; mean ± SD
From the text: as §1, §2

[3] = tested on: HCT-116 (human colon cancer); experiment: MTT cytotoxicity assay, HCT-116; assay type: cell-based; conditions: Homo sapiens; for inhibition at 100 µg/mL: HCT-116, 100 µg/ml, 48 h, read-out: Growth Inhibition (%) HCT-116; for IC50: HCT-116, 48 h, 48 h post-treatment
Description: MCF-7 (human breast cancer), HCT-116 (human colon cancer) and HepG2 (human liver cancer) cell lines were obtained from Karolinska Institute, Stockholm, Sweden. All cells were maintained in RPMI 1640 medium. The media were supplemented with 10% heat-inactivated fetal bovine serum plus 1% antibiotic-antimycoticmixture (10,000 U/mL of potassium penicillin, 10,000 μg/mL of streptomycin sulfate, 25 μg/mL of amphotericin B and 1% of L glutamine (Biowest, USA)). BJ-1 of a human skin fibroblast derived from normal foreskin was obtained from ATCC® CRL-2522™ as a frozen ampoule with about 1 × 10^6 cells per 1 ml volume. BJ-1 was maintained in MEM with 2 mM of L-glutamine and Earle’s salts medium.
Cell viability was studied using the MTT 3-(4,5-dimethylthiazol-2-yl)-2,5-diphenyl-tetrazolium bromide (Bio Basic Canada Inc. Toronto, Canada) assay [33]. The steps were executed in a sterile laminar air flow cabinet biosafety class II level (Baker, SG403INT; Sanford, ME, USA). All incubations were carried out at 37 °C in a 5% CO2 incubator under a humidified atmosphere of 95% (Sheldon, TC2323; Cornelius, OR, USA). Cells were seeded into 96-well microtiter plastic plates at a concentration of (10^4 cells/well) and allowed to adhere for 24 h. The medium was aspirated and then added to the cells with the test compounds 11a–c, 12a–c, 13a–i, 14a–i and 15a,b at a single dose of 100 μg/mL in DMSO. After incubation of the medium for 48 h, 40 μL of MTT salt (2.5 μg/mL) was added to each well and then incubated for an additional 4 h. To stop the reaction and dissolve any formed formazan crystals, 200 μL of 10% sodium dodecyl sulfate (SDS) were added to each well and incubated overnight at 37 °C. The amount of formazan product was measured at 595 nm with a reference wavelength of 690 nm as a background using a microplate reader (Bio-Rad Laboratories, model 3350, California, USA). For the untreated cells (negative control), the medium was added instead of the tested compounds. […] Dimethylsulfoxide (DMSO) was the vehicle used for dissolution of the testing compound, and its final concentration on the cells was less than 0.2%. At the same dilution, the solvent concentration was the same for all drugs and between the control and drug treatments.

C. albicans (ATCC 10231) = experiment: Disk diffusion antimicrobial test, C. albicans; assay type: cell-based, Candida albicans; conditions: Candida albicans, ATCC10231, disk diffusion; yeast; 20 mg per disc (title), concentration 20 µg (footnote)
Description: (§3) The newly synthesized compounds were chosen to be evaluated in vitro towards a variety of pathogenic microorganisms; Gram-positive bacteria: S. aureus (ATCC 6538) and B. subtilis (ATCC 6633); Gram-negative bacteria: P. areuginosa (ATCC 27853) and E. coli (DSMZ 1058); yeast: C. albicans (ATCC 10231) and S. cerevisiae (ATCC 9080) and fungi: A. niger (NRRL A-326) using the disk diffusion method at a single dose of 20 µl. The results are shown in Table 1 as the growth inhibition zone (mm).
(§4) The antimicrobial activity of target compounds were evaluated to be in vitro against a variety of pathogenic microorganisms, namely Staphylococcus aureus (ATCC 6538), Bacillus subtilis (ATCC 6633) (Gram-positive bacteria), Pseudomonas areuginosa (ATCC 27853), Escherichia coli (DSMZ 1058) (Gram-negative bacteria), Candida albicans (ATCC 10231), Saccharomyces cerevisiae (ATCC 9080) (Yeast) and Aspergillus niger (NRRL A-326) (Fungi) using the disk diffusion method at a single dose of 20 µg. The microorganisms were served and obtained from the Microbial Biotechnology Department, National Research Center, Giza, Egypt. Amphotericin, amoxicillin and ciprofloxacin were used as reference drugs (Oxoid™ Disks). The tested compounds 11a–c, 12a–c, 13a–i, 14a–i and 15a,b were dissolved in dimethylsulphoxide (DMSO) at a concentration of 1 mg/mL. Aliquots of 20 μl were soaked on filter paper discs (6 mm) and dried at room temperature under sterilized conditions. The paper discs were placed on inoculated agar plats and then incubated for 24 h at 37 °C for bacterial strains and after 48–72 h incubation at 30 °C for fungi. Both bacterial and yeast strains were grown on nutrient agar medium (g/l): beef extract, 3; peptone, 10 and agar, 20 at pH of 7.2. The fungal strain was grown on Czapek-Dox medium (g/l): sucrose, 30; NaNO3, 3; MgSO4.7H2O, 0.5l; KCl, 0.5; FeSO4, 0.01; K2HPO4, 1 and agar, 20 at pH of 6.0.

Bcl-2 = Bcl-2 ELISA in MCF-7 cells; assay type: cell-based, human; conditions: for Bcl-2 (ng/50 mg Protein): MCF-7 cells treated at IC50 concentration, control 25.13 ± 3.45, mean ± SD; for Reduction of expression level of antiapoptotic protein Bcl-2 compared to the control: MCF-7 cells, IC50 concentration
From the text: as §1, §2

[4] = tested on: S. cerevisiae (ATCC 9080); experiment: Disk diffusion antimicrobial test, S. cerevisiae; assay type: cell-based; conditions: Saccharomyces cerevisiae, ATCC9080, yeast, 20 mg per disc (title), concentration 20 µg (footnote)
Description: as §3, §4

caspase-3 = experiment: Caspase-3 colorimetric assay in HCT-116 cells; assay type: cell-based, human; conditions: HCT-116 cells treated at IC50 concentration; control 13.60 ± 2.45; mean ± SD
From the text: as §1, §2

[5] = DPPH free radical scavenging assay; assay type: biochemical; conditions: concentration of 20µg/l, mean ± SD of three experiments
Summary of the method: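 Compound DMSO stock (1 mg/mL) added to fresh DPPH in DMSO (20 mg/L), vortexed 1 min, kept dark for 15–60 min. Absorbance at 517 nm; % scavenging = (A control − A sample)/A control × 100; triplicates averaged. Ascorbic acid served as reference.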

[6] = 15 min, read-out: Scavenging Activity (%) on DPPH radicals at 15 min
[7] = 30 min, read-out: Scavenging Activity (%) on DPPH radicals at 30 min
[8] = 45 min, read-out: Scavenging Activity (%) on DPPH radicals at 45 min
[9] = 60 min, read-out: Scavenging Activity (%) on DPPH radicals at 60 min

SMILES	Bax (pg/50 mg Protein) (Bax [1])	Bax (pg/50 mg Protein) (Bax [2])	inhibition at 100 µg/mL [3] [%]	IC50 [3] [µg/mL]	zone of inhibition at 20 µg/disc (C. albicans (ATCC 10231)) [mm]	Bcl-2 (ng/50 mg Protein) (Bcl-2)	Reduction of expression level of antiapoptotic protein Bcl-2 compared to the control (Bcl-2)	zone of inhibition at 20 µg/disc [4] [mm]	Caspase-3 Activity % (caspase-3) [%]	inhibition [5, 6] [%]	inhibition [5, 7] [%]	inhibition [5, 8] [%]	inhibition [5, 9] [%]
COc1c(C2=NNC3(C2)C(=O)Nc2ccccc23)c(O)cc2occc12 (stereo not drawn) [Compound 11a, 5’-(6-Hydroxy-4-methoxy-benzofuran-5-yl)-2’,4’-dihydrospiro(indoline-3,3’-pyrazol)-2-one]	159.26 ± 0.96	122.34 ± 3.45	96.2	5.7 (≈ 16.3 µM)	20	12.3 ± 2.26	~ 50%	16	19.12 ± 0.89	6.86 ± 1.17	10.3 ± 1.37	17.7 ± 1.28	26.9 ± 1.56
COc1cc2occc2c(OC)c1C1=NNC2(C1)C(=O)Nc1ccccc12 (stereo not drawn) [Compound 11b, 5’-(4,6-Dimethoxy-benzofuran-5-yl)-2’,4’-dihydrospiro(indoline-3,3’-pyrazol)-2-one]	119.14 ± 1.65	109.35 ± 4.05	94.9	16.4 (≈ 45.1 µM)	18	16.18 ± 0.78		18	14.04 ± 0.54	9.6 ± 1.77	14.3 ± 1.52	20.4 ± 1.65	30.8 ± 2.04
COc1c(C2=NNC3(C2)C(=O)Nc2ccccc23)c(O)c(OC)c2occc12 (stereo not drawn) [Compound 12a, 5’-(6-Hydroxy-4,7-dimethoxy-benzofuran-5-yl)-2’,4’-dihydrospiro(indoline-3,3’-pyrazol)-2-one]	124.56 ± 0.95	113.09 ± 1.98	96.7	5.8 (≈ 15.3 µM)	12	13.09 ± 2.27	~52%	10	17.43 ± 0.58	56.4 ± 1.08	67.1 ± 1.45	76.9 ± 1.51	81.4 ± 1.37
COc1c(C2=NNC3(C2)C(=O)Nc2ccccc23)c(OC)c2ccoc2c1OC (stereo not drawn) [Compound 12b, 5’-(4,6,7-Trimethoxy-benzofuran-5-yl)-2’,4’-dihydrospiro(indoline-3,3’-pyrazol)-2-one]	191.07 ± 1.95	167.07 ± 4.83	95.1	7.9 (≈ 20.1 µM)	10	12.87 ± 1.84	~51%	10	33.12 ± 1.37	17.3 ± 1.53	23.5 ± 1.64	30.6 ± 1.49	40.6 ± 1.46
